# Laboratory results taken from the supplement of paper PMC10307832.
# Tests used:
# Test in all cases: relative viability (nuclei count vs DMSO), 5 days (fraction); higher = more cells survive
# [1] = tested on: LCLC-103H
# Method in brief: (§1)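 Relative viability equals treated-well nuclei counts divided by vehicle-well nuclei counts. Counts came from 4× images of lung cancer cell lines grown in 1536-well plates for 5 days after pin-tool dosing on the day after seeding. Dosing used one drug alone or a fixed anchor-drug dose plus five library-drug doses (not always all listed) in √10 steps, and values are medians of duplicate plates.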
# [2] = tested on: NCI-H520
# Method in brief: as §1
# [3] = tested on: PC-3 [JPC-3]
# Method in brief: as §1
# [4] = tested on: NCI-H1793
# Method in brief: as §1
# [5] = tested on: NCI-H838
# Method in brief: as §1
# [6] = tested on: LOU-NH91
# Method in brief: as §1
# [7] = tested on: NCI-H1651
# Method in brief: as §1
# [8] = tested on: 201T
# Method in brief: as §1
# [9] = tested on: NCI-H23
# Method in brief: as §1
# [10] = tested on: NCI-H647
# Method in brief: as §1
# [11] = tested on: LXF-289
# Method in brief: as §1
# [12] = tested on: NCI-H2405
# Method in brief: as §1
# [13] = tested on: RERF-LC-KJ
# Method in brief: as §1
# [14] = tested on: NCI-H2347
# Method in brief: as §1
# [15] = tested on: HARA
# Method in brief: as §1
# [16] = tested on: A-427
# Method in brief: as §1
# [17] = tested on: UMC-11
# Method in brief: as §1
# [18] = tested on: LK-2
# Method in brief: as §1
# [19] = tested on: HCC-78
# Method in brief: as §1
# [20] = tested on: LCLC-97TM1
# Method in brief: as §1
# [21] = tested on: NCI-H1650
# Method in brief: as §1
# [22] = tested on: NCI-H522
# Method in brief: as §1
# [23] = tested on: COR-L23
# Method in brief: as §1
smiles,measurement,setting,value
Cc1cn(-c2cc(NC(=O)c3ccc(C)c(Nc4nccc(-c5cccnc5)n4)c3)cc(C(F)(F)F)c2)cn1 [Nilotinib] + Cc1nc(Nc2ncc(C(=O)Nc3c(C)cccc3Cl)s2)cc(N2CCN(CCO)CC2)n1 [Dasatinib] (partner 0.075 µM),relative viability,[1]; first compound 0.001 µM,0.414
same,relative viability,[1]; first compound 0.003162 µM,0.414
same,relative viability,[1]; first compound 0.01 µM,0.51
same,relative viability,[1]; first compound 0.03162 µM,0.338
same,relative viability,[1]; first compound 0.1 µM,0.434
same,relative viability,[2]; first compound 0.001 µM,0.224
same,relative viability,[2]; first compound 0.003162 µM,0.171
same,relative viability,[2]; first compound 0.01 µM,0.198
same,relative viability,[2]; first compound 0.03162 µM,0.156
same,relative viability,[2]; first compound 0.1 µM,0.147
same,relative viability,[3]; first compound 0.001 µM,0.95
same,relative viability,[3]; first compound 0.003162 µM,1.09
same,relative viability,[3]; first compound 0.01 µM,1.1
same,relative viability,[3]; first compound 0.03162 µM,0.844
same,relative viability,[3]; first compound 0.1 µM,0.528
same,relative viability,[4]; first compound 0.001 µM,0.303
same,relative viability,[4]; first compound 0.003162 µM,0.407
same,relative viability,[4]; first compound 0.01 µM,0.459
same,relative viability,[4]; first compound 0.03162 µM,0.283
same,relative viability,[4]; first compound 0.1 µM,0.194
same,relative viability,[5]; first compound 0.001 µM,0.279
same,relative viability,[5]; first compound 0.003162 µM,0.302
same,relative viability,[5]; first compound 0.01 µM,0.278
same,relative viability,[5]; first compound 0.03162 µM,0.268
same,relative viability,[5]; first compound 0.1 µM,0.291
same,relative viability,[6]; first compound 0.001 µM,0.524
same,relative viability,[6]; first compound 0.003162 µM,0.619
same,relative viability,[6]; first compound 0.01 µM,0.569
same,relative viability,[6]; first compound 0.03162 µM,0.489
same,relative viability,[6]; first compound 0.1 µM,0.583
same,relative viability,[7]; first compound 0.001 µM,0.426
same,relative viability,[7]; first compound 0.003162 µM,0.387
same,relative viability,[7]; first compound 0.01 µM,0.42
same,relative viability,[7]; first compound 0.1 µM,0.208
same,relative viability,[8]; first compound 0.01 µM,0.404
same,relative viability,[8]; first compound 0.03162 µM,0.451
same,relative viability,[8]; first compound 0.1 µM,0.295
same,relative viability,[9]; first compound 0.001 µM,0.691
same,relative viability,[9]; first compound 0.003162 µM,0.681
same,relative viability,[9]; first compound 0.01 µM,0.823
same,relative viability,[9]; first compound 0.03162 µM,0.309
same,relative viability,[9]; first compound 0.1 µM,0.508
same,relative viability,[10]; first compound 0.001 µM,0.195
same,relative viability,[10]; first compound 0.003162 µM,0.274
same,relative viability,[10]; first compound 0.01 µM,0.262
same,relative viability,[10]; first compound 0.03162 µM,0.101
same,relative viability,[10]; first compound 0.1 µM,0.0706
same,relative viability,[11]; first compound 0.001 µM,0.214
same,relative viability,[11]; first compound 0.003162 µM,0.239
same,relative viability,[11]; first compound 0.01 µM,0.188
same,relative viability,[11]; first compound 0.03162 µM,0.207
same,relative viability,[11]; first compound 0.1 µM,0.136
same,relative viability,[12]; first compound 0.001 µM,0.219
same,relative viability,[12]; first compound 0.003162 µM,0.205
same,relative viability,[12]; first compound 0.01 µM,0.214
same,relative viability,[12]; first compound 0.03162 µM,0.221
same,relative viability,[12]; first compound 0.1 µM,0.207
same,relative viability,[13]; first compound 0.001 µM,0.716
same,relative viability,[13]; first compound 0.003162 µM,0.947
same,relative viability,[13]; first compound 0.01 µM,0.833
same,relative viability,[13]; first compound 0.03162 µM,0.71
same,relative viability,[13]; first compound 0.1 µM,0.549
same,relative viability,[14]; first compound 0.001 µM,0.302
same,relative viability,[14]; first compound 0.003162 µM,0.344
same,relative viability,[14]; first compound 0.01 µM,0.344
same,relative viability,[14]; first compound 0.03162 µM,0.267
same,relative viability,[14]; first compound 0.1 µM,0.264
same,relative viability,[15]; first compound 0.001 µM,0.325
same,relative viability,[15]; first compound 0.003162 µM,0.345
same,relative viability,[15]; first compound 0.01 µM,0.289
same,relative viability,[15]; first compound 0.03162 µM,0.178
same,relative viability,[15]; first compound 0.1 µM,0.112
same,relative viability,[16]; first compound 0.001 µM,0.663
same,relative viability,[16]; first compound 0.003162 µM,0.728
same,relative viability,[16]; first compound 0.01 µM,0.72
same,relative viability,[16]; first compound 0.03162 µM,0.54
same,relative viability,[16]; first compound 0.1 µM,0.1
same,relative viability,[17]; first compound 0.001 µM,0.41
same,relative viability,[17]; first compound 0.003162 µM,0.655
same,relative viability,[17]; first compound 0.01 µM,0.649
same,relative viability,[17]; first compound 0.1 µM,0.247
same,relative viability,[18]; first compound 0.001 µM,0.311
same,relative viability,[18]; first compound 0.003162 µM,0.239
same,relative viability,[18]; first compound 0.01 µM,0.294
same,relative viability,[18]; first compound 0.03162 µM,0.247
same,relative viability,[18]; first compound 0.1 µM,0.183
same,relative viability,[19]; first compound 0.001 µM,0.442
same,relative viability,[19]; first compound 0.003162 µM,0.357
same,relative viability,[19]; first compound 0.01 µM,0.404
same,relative viability,[19]; first compound 0.03162 µM,0.252
same,relative viability,[19]; first compound 0.1 µM,0.268
same,relative viability,[20]; first compound 0.001 µM,0.855
same,relative viability,[20]; first compound 0.003162 µM,0.896
same,relative viability,[20]; first compound 0.01 µM,0.971
same,relative viability,[20]; first compound 0.03162 µM,0.654
same,relative viability,[20]; first compound 0.1 µM,0.617
same,relative viability,[21]; first compound 0.001 µM,0.335
same,relative viability,[21]; first compound 0.003162 µM,0.32
same,relative viability,[21]; first compound 0.01 µM,0.265
same,relative viability,[21]; first compound 0.03162 µM,0.321
same,relative viability,[21]; first compound 0.1 µM,0.21
same,relative viability,[22]; first compound 0.001 µM,0.851
same,relative viability,[22]; first compound 0.003162 µM,0.873
same,relative viability,[22]; first compound 0.01 µM,1.16
same,relative viability,[22]; first compound 0.03162 µM,0.715
same,relative viability,[22]; first compound 0.1 µM,0.596
same,relative viability,[23]; first compound 0.001 µM,0.482
same,relative viability,[23]; first compound 0.003162 µM,0.501
same,relative viability,[23]; first compound 0.01 µM,0.511
same,relative viability,[23]; first compound 0.03162 µM,0.265
same,relative viability,[23]; first compound 0.1 µM,0.407
